Measurements reported in the NIST ThermoML archive (doi:10.1021/je9005882).

Assay: excess molar enthalpy (molar enthalpy of mixing); xn = mol fraction of the nth substance listed
Conditions: 303.15 K, 101 kPa, Liquid

BrCBr [dibromomethane] + CO
Conditions	excess molar enthalpy [kJ/mol]
x1 = 0.1506	0.181
x1 = 0.2779	0.409
x1 = 0.3148	0.472
x1 = 0.4026	0.577
x1 = 0.504	0.639
x1 = 0.6195	0.709
x1 = 0.7224	0.782
x1 = 0.921	0.645
x1 = 0.9515	0.466
x1 = 0.9781	0.244

BrCBr [dibromomethane] + c1ccccc1
Conditions	excess molar enthalpy [kJ/mol]
x1 = 0.0931	0.04
x1 = 0.253	0.082
x1 = 0.3416	0.101
x1 = 0.4618	0.119
x1 = 0.5464	0.133
x1 = 0.6705	0.13
x1 = 0.7405	0.127
x1 = 0.8394	0.099
x1 = 0.9506	0.041

BrCBr [dibromomethane] + C[S+](C)[O-]
Conditions	excess molar enthalpy [kJ/mol]
x1 = 0.062	-0.212
x1 = 0.1162	-0.358
x1 = 0.2682	-0.733
x1 = 0.3407	-0.84
x1 = 0.4342	-0.949
x1 = 0.503	-1
x1 = 0.5251	-1.01
x1 = 0.6466	-0.952
x1 = 0.7285	-0.846
x1 = 0.8234	-0.638
x1 = 0.8934	-0.433

BrCBr [dibromomethane] + O=C1CCCN1
Conditions	excess molar enthalpy [kJ/mol]
x1 = 0.0955	-0.384
x1 = 0.151	-0.56
x1 = 0.2158	-0.742
x1 = 0.2999	-0.905
x1 = 0.4044	-1.03
x1 = 0.5247	-1.01
x1 = 0.613	-0.922
x1 = 0.7203	-0.726
x1 = 0.7913	-0.533
x1 = 0.8401	-0.405
x1 = 0.9084	-0.212
